From publication PMC8686256, “DZNep promotes mouse bone defect healing via enhancing both osteogenesis and osteoclastogenesis” (Stem Cell Research & Therapy, 2021)

Tests used:
bone defect mice = assay: Tibia cortical and trabecular bone defect mice model; format: in vivo, mouse
From the text: The tibia cortical and trabecular bone defect mice model was established to determine the bone healing effect of DZNep in vivo. Firstly, all mice (twelve 8-week-old C57/BL6 male mice (approximate weight 20 ± 2 g)) were anesthetized by 2% isoflurane, the right tibia was exposed, and muscles were dissociated. Then a pilot hole was first made with a burr drill point in the proximal tibia, but away from the growth plate to some extent. Then the hole was enlarged with a 1 mm […]. Afterward, the mice were average divided into two groups: (1) DZNep group (injection with 100 μg/kg DZNep); (2) Sham group (injection with 1 × PBS). Two days after operation, 1 × PBS for sham group and DZNep for treatment group were intraperitoneally injected every two days during next two week. All mice were finally euthanized after experiment, and whole tibia bones were separated. After fixed in 4% paraformaldehyde for 24 h, the 75% ethanol was then used to soak the specimens for further histological and radiographic analysis. High-resolution micro-CT (μCT-100, SCANCO Medical AG, Switzerland) was used to perform the micro-computed tomography (CT) scanning. […] For analysis bone mass of defect section, a region of defect section trabecular bone was contoured, starting from the first defect section level away from proximal end of the […] growth plate. Femoral trabecular bone was thresholded at 211 per mille. The indicators of bone microstructure (bone volume/tissue volume (BV/TV), trabecular thickness (Tb.Th), trabecula number (Tb.N), trabecula separation (Tb.Sp), and bone surface/ bone volume (BS/BV)) were measured by software (Version: 6.5-3, SCANCO Medical AG, Switzerland) through evaluating and analyzing the three-dimensional region of interest (ROI). After fixing in 4% paraformaldehyde for 48 h, the 10% EDTA was used to decalcify the fixed tibias for 21 days. Then the tissues were processed by dehydrating in different concentrations of ethanol, infiltrating with xylene, and embedding with paraffin. Hematoxylin and eosin (H&E) and TRAP staining were then performed on these prepared histological sections. As for immunofluorescent staining, slices were processed in a sequence of deparaffinization, hydration, antigen retrieval, permeabilization, blocking, primary antibody incubation (OCN, USA, Affinity; dilution 1:100), secondary antibody incubation, and nuclear staining finally. Immunohistochemical (IHC) staining was accomplished with antibodies against OCN (USA, Affinity; dilution 1:100). The specimens were observed and photographed under the high-quality microscope (Leica DM4000B). Each sample's number of osteoclasts and TRAP-positive multinucleated osteoclasts per field (Oc.S/BS) were calculated.

c-FOS and NFATc1 = assay: Western blotting of c-FOS and NFATc1 in BMMs; format: cell-based, mouse
Procedure: To explore the variation of the proteins on long-term activated signaling, BMMs were cultured in α-MEM containing M-CSF (30 ng/ml) and RANKL (50 ng/ml) at a density of 2 × 10^5 cells/well on 6-well plates. After 24 h, the BMMs were treated with or without 25 nM DZNep for 0, 1, 3, and 5 days, and total protein was obtained, respectively, on these specific time points. To determine the effect of DZNep on the protein of short-time activated phosphorylated, RAW264.7 cells were cultured in α-MEM at a density of 5 × 10^5 cells/well on 6-well plates. One day later, the cells were treated with the serum-free α-MEM in the presence or absence of DZNEP for 3 hand then stimulated with 50 ng/mL RANKL for 0, 10, 20, 30, and 60 min. To determine the efficiency of EZH2 shRna, BMMs were cultured in α-MEM at a density of 5 × 10^5 cells/well on 6-well plates. One day later, the cells were treated with negative control shRNA or different EZH2 shRNA for 2 days. To determine the efficiency of Foxc1 siRna, BMMs were cultured in α-MEM at a density of 5 × 10^5 cells/well on 6-well plates. […] After TBST wash for 3 times, the secondary fluorescence antibodies were incubated without light for 1 h at room temperature and the reactivity was visualized by using Odyssey V3.0 image scanning (Li-COR. Inc., Lincoln, NE, USA). […]

[1] = 100 μg/kg i.p. every two days, two weeks

Nc1nccc2c1ncn2C1C=C(CO)C(O)C1O (centres unmarked) [DZNep, 3-Deazaneplanocin]
osteocalcin (OCN) expression in vivo (bone defect mice; 100 μg/kg i.p.): increased | BV/TV (micro-CT) (bone defect mice; [1]): prominently increased | trabecular thickness (Tb.th) (micro-CT) (bone defect mice; [1]): prominently increased | bone mineral density (X-ray) (bone defect mice; 100 μg/kg i.p. every two days, two weeks, vs control): more bone mineral density | bone repair (H&E-stained sections) (bone defect mice; 100 μg/kg i.p., vs control): more significant bone repair | number of TRAP-positive multinucleated osteoclasts in vivo (bone defect mice; 100 μg/kg i.p., vs vehicle-treated group): more number of TRAP-positive multinucleated osteoclasts | expression of c-FOS and NFATc1 (western blot) (c-FOS and NFATc1; 25 nM, 0, 1, 3, 5 days, vs control): further enhanced | c-FOS and NFATc1 expression (western blot), various concentrations (c-FOS and NFATc1; RANKL, 5 days): upregulated
